Common to all, as to assay: NCI-60 cell line screen, 48 h
Experiment [1] relates to SW-620 colon.
The test system of experiment [2] is DU-145 prostate.
Experiment [3] deals with OVCAR-5 ovarian.
In experiment [4] the test system is MDA-MB-231 breast.
Experiment [5] relates to SNB-75 CNS.
The test system of experiment [6] is A549 NSCLC.
The test system of experiment [7] is CAKI-1 renal.
For experiment [8], the system named is 786-0 renal.
The test system of experiment [9] is SK-MEL-28 melanoma.
Experiment [10] has as its system HS 578T breast.
Experiment [11] deals with A498 renal.
Experiment [12] relates to HL-60(TB) leukemia.
The subject of experiment [13] is HOP-92 NSCLC.

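In this assay, cells in 96-well plates receive the compound at five concentrations for 48 hours. Endpoints are linearly interpolated between the surrounding concentrations. Definition used: TGI = concentration required for complete inhibition of growth.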 Where a SMILES comes first, the peptide text is derived from it. The star is where a group is joined. Cbz = O=C(OCc1ccccc1)*

For the molecule `COC(=O)C12C(=O)CC3CCC1C32C(=O)OC` (stereo not given), the TGI in [1], in experiment [2], in experiment [3], in [4], in [5] and in [6] was over 100 µM each time. Also, the TGI in experiment [7], in experiment [8] and in experiment [9] was over 100 µM throughout.
In the case of `Cc1cc(C)c2c(-c3ccccc3)cc(=O)[nH]c2c1`, the TGI in [1], in experiment [2], in experiment [10], in [3], in experiment [4] and in experiment [11] was over 100 µM each time. The TGI in experiment [5], in experiment [6], in [8], in experiment [9] and in experiment [12] was over 100 µM throughout.
For the molecule `O=C1O/C(=C(\Br)c2ccc([N+](=O)[O-])cc2)c2ccccc21`, the TGI in experiment [1], in experiment [2], in [10], in experiment [3], in experiment [11] and in experiment [5] was over 100 µM in each case. Further, the TGI in [6] was over 100 µM; in experiment [7], over 100 µM; in experiment [8], over 100 µM; in [13] it was over 100 µM; in [9] it was over 100 µM; in experiment [12], over 67.1 µM.
As to `O=[N+]([O-])C(/C(Cl)=C(/Cl)N1CCOCC1)=C1\Nc2ccccc2O1`, the TGI in experiment [1], in [2], in experiment [10], in [3], in [4] and in [11] was over 100 µM in each case. In addition, the TGI in [5], in [6], in experiment [7], in experiment [8] and in experiment [9] was over 100 µM throughout.
With `CN(C)c1ccc(-c2c(C#N)c(-c3ccccc3)n(NS(=O)(=O)c3ccccc3)c(=O)c2C#N)cc1`, the TGI in [1], in experiment [10], in experiment [3], in experiment [4], in experiment [11] and in [5] was over 100 µM each time. Also, the TGI in [6], in [7], in [8], in experiment [13] and in [9] was over 100 µM in each case.
Consider `CC(C)(C)c1ccc(O)c(C(O)c2ccccn2)c1` (stereo not given), for which the TGI in experiment [1] was over 100 µM; in experiment [2], over 100 µM; in [10], over 100 µM; in experiment [3] it was 89.6 µM; in experiment [4], over 100 µM; in experiment [5] it was over 100 µM. In addition, the TGI in experiment [6], in experiment [7], in experiment [8], in experiment [9] and in experiment [12] was over 100 µM in each case.
As to `Cc1c2ccccc2c(=O)n2c(-c3ccccn3)cccc12`, the TGI in experiment [1], in experiment [11], in experiment [5], in [6], in [7] and in [8] was over 100 µM throughout. Also, the TGI in [13], in experiment [9] and in [12] was over 100 µM throughout.
In the case of `CN(C(=O)Cc1cc(Cl)c(Cl)cc1NC(=O)CCCN)[C@H]1CCCC[C@@H]1N1CCCC1`, the TGI in [1] was 91.2 µM; in experiment [2] it was over 100 µM; in experiment [3], over 100 µM; in [4], 77.4 µM; in experiment [11], 32.4 µM; in experiment [6], 83.1 µM. In addition, the TGI is over 100 µM in experiment [7], 36.2 µM in experiment [8], 33 µM in experiment [9] and 52.8 µM in experiment [12].
Turning to `Fc1ccc(F)c(C=NC23CC4CC(CC(C4)C2)C3)c1`, the TGI in [1], in experiment [2], in experiment [10], in experiment [3], in experiment [11] and in experiment [5] was over 10 µM in each case. Besides, the TGI in experiment [6] is over 10 µM; in experiment [7] it was over 10 µM; in experiment [8], over 10 µM; in experiment [13], over 10 µM; in experiment [9], over 10 µM; in experiment [12], 6.94 µM.
As to `CCOC(=O)CCC(NC(=O)C(CC(=O)OC)NC(=O)OCc1ccccc1)C(=O)NC(CC(=O)OC)C(=O)NC(CCC(=O)OCC)C(=O)NC(CC(=O)OC)C(=O)NC(CCC(=O)OCC)C(=O)NC(CC(=O)OCC)C(=O)OCC` (stereo not given) (Cbz-D(OMe)E(OEt)D(OMe)E(OEt)D(OMe)E(OEt)D(OEt)-OEt; configuration not given here), the TGI in [1], in experiment [2], in [3], in [4], in experiment [11] and in [6] was over 100 µM each time. Further, the TGI in experiment [8] and in experiment [12] was over 100 µM throughout.
Regarding `[N-]=[N+]=NC1C(Cl)C(=O)NC(=O)N1[C@H]1C[C@H](O)[C@@H](CO)O1` (stereo not given in full), the TGI in experiment [1], in experiment [3], in experiment [11], in [5], in experiment [6] and in experiment [7] was over 100 µM throughout. For the same molecule, the TGI in [8], in [13], in [9] and in experiment [12] was over 100 µM each time.
For `CC1=C[C@H](C[C@]2(C)c3c(c4c(C)cccc4oc3=O)O[C@@H]2C)OC1=O`, the TGI in experiment [1] was 75 µM; in [2] it was over 100 µM; in experiment [10], over 100 µM; in experiment [3], over 100 µM; in [4] it was over 100 µM; in [11], over 100 µM. Also, the TGI was over 100 µM in [5]; over 100 µM in experiment [6]; over 100 µM in [7]; 50 µM in [8]; 52.5 µM in experiment [12].

These data come from PubChem BioAssay (NCI).
